In patent EP0994713B1, “USE OF A 7alpha-METHYL-17alpha-ETHYNYL-ESTRANE DERIVATIVE FOR THE TREATMENT OF ATHEROSCLEROSIS” (Akzo Nobel N.V., priority 1997, dated 1998):

Experiments:
Type in all cases: in vivo, New Zealand White rabbits
[1] = test system: female ovariectomized rabbits; assay: Vessel wall cholesterol measurement in the aortic arch; conditions: for Cholesterol level in aortic arch: cholesterol diet, OVX, necropsy at 20 weeks
Description: (§1) The model is considered relevant to the human atherosclerotic process, because the cellular events occurring during the development of the atherosclerotic lesions during the atherogenic diet are similar to those observed in different stages of atherosclerotic processes in coronary arteries.
(§2) An experiment was performed with 7 groups of sexually mature, virgin female New Zealand White rabbits (Harlan, Zeist, The Netherlands), age 7-9 months and weighing approximately 3 kg (number of […] per group: 13-14). During the acclimatization period the rabbits were fed a diet of standard commercial rabbit chow LKK20 (Hope Farms, Woerden, The Netherlands). Three weeks prior to the start of the experiment the animals were anaesthetized and underwent bilateral ovariectomy (OVX) or were sham operated. After three weeks, at the start of the experiment, the rabbits were randomized over the treatment groups.
(§3) The animals were randomly allocated into 7 experimental groups using a randomized block design. […] One group was fed the standard rabbit chow (LKK20). Food intake was restricted to 80 grams daily.
(§4) Groups 1, 2 and 3 were on a daily placebo treatment. Groups 4-5 were treated with 7α-methyl-17α-ethynyl-17β-hydroxy-estra-5(10)-en-3-one (OD-14; tibolone; 6 or 2 mg daily); group 6 with 17β-estradiol (4 mg daily). Group 7 was on treatment with 17β-estradiol decanoate (150 µg in 1 ml arachis oil injected subcutaneously once a week).
(§5) During the experiment blood samples were drawn out of the central ear artery after sedation with Hypnorm (0.1 ml i.m.) (Janssen Pharmaceutics, Beerse, Belgium) before the daily treatment, at week 4,8,12,16 and 20, to monitor the plasma cholesterol levels and to measure, at week 17, plasma estradiol levels and plasma tibolone levels. Twenty weeks after the start of the experiment animals were anaesthetized by an i.m. injection of Hypnorm (0.5 ml/kg). After blood sampling the rabbits were killed by exsanguination and the aortic arch, uterus and carotid artery removed for further analyses.
(§6) Three weeks prior to the start of the experiment the animals were ovariectomized. At the start of the experiment the carotid artery was de-endothelialised using the air-drying technique. The normal rabbit chow was replaced by the atherogenic diet except for the control group which received during the experiment the normal rabbit chow.
(§7) Group 5 was on treatment with 17β-estradiol decanoate (300 µg in 1 ml arachis oil injected subcutaneously once a week).
The amount of protein in the tissue was determined by the method of Lowry.

[2] = Body weight at necropsy, cholesterol fed rabbit model; conditions: cholesterol diet, OVX, necropsy at 20 weeks
Description: as §1
as §2, with “groups. In all animals de-endothelialisation of a segment of the left carotid artery was applied by using the air-drying technique (Fishman, J.A. et al., "Endothelial regeneration in the rat carotid artery and the significance of endothelial denudation in the pathogenesis of myointimal thickening", Lab. Invest. 1975, 32, 339-351; and Lafont, A. et al., "Restenosis and experimental angioplasty: Intimal, medial and adventitial changes associated with constructive remodeling", Circulation Research, 1995, 76, 996-1002)” for “groups.”
The animals were randomly allocated into 7 experimental groups using a randomized block design. The groups were fed an atherogenic diet (commercial rabbit chow (LKK20) enriched with 0.4 grams cholesterol, 3.75 grams coconut oil and 3.75 grams peanut oil per 100 grams). One group was fed the standard rabbit chow (LKK20). Food intake was restricted to 80 grams daily.
as §4, with “The treatments (Table I) were daily administered orally as a tablet, prepared as in Example 1. Groups 1,” for “Groups 1,”
as §5
In addition to example 2 an additional experiment was performed with two lower doses of Org OD14 and a higher dose of estradiol decanoate. […] The procedures were identical to those in example 2.
as §6
The treatments (table II) of group 1, 2, 3 and 4 were daily administered orally as a tablet, prepared as in example 1. The doses of Org OD14 per tablet, however, were 0.6 mg and 0.15 mg respectively. Group 5 was on treatment with 17β-estradiol decanoate (300 µg in 1 ml arachis oil injected subcutaneously once a week). Twenty weeks after the start of the experiment was ended in the same manner as described in example 2.
After 20 weeks of diet and of daily treatment, necropsy was performed to determine the accumulation of cholesterol and fatty streaks in the aortic arch and the advanced lesions in the carotid artery. […]

[3] = test system: female ovariectomized rabbits; assay: Plasma cholesterol levels, cholesterol fed rabbit model; conditions: for Mean plasma cholesterol exposure: cholesterol diet, OVX, 20 weeks
Description: as §1, §2, §3, §4, §5, §6, §7

[4] = Example 2, Group 4: 6 mg orally daily
[5] = Example 2, Group 5: 2 mg orally daily
[6] = Example 3: 0.15 mg orally once daily
[7] = Example 3: 0.6 mg orally once daily

## C#C[C@]1(O)CC[C@H]2[C@@H]3[C@H](C)CC4=C(CCC(=O)C4)[C@H]3CC[C@@]21C [Org OD14, 7α-methyl-17α-ethynyl-17β-hydroxy-estra-5(10)-en-3-one]
[1]; [4]
  Cholesterol level in aortic arch: 52 ± 9 nmol/mg protein
[1]; [5]
  Cholesterol level in aortic arch: 61 ± 11 nmol/mg protein
[1]; Example 2: Org OD14 2 and 6 mg, E2 4 mg orally daily
  cholesterol accumulation in the aortic arch (in words): completely prevented cholesterol accumulation
[1]; [6]
  Cholesterol level in aortic arch: 297 ± 67 nmol/mg protein
[1]; [7]
  Cholesterol level in aortic arch: 97 ± 23 nmol/mg protein
[2]; [4]
  Body weight: 2758 ± 41 grams
[2]; [5]
  Body weight: 2815 ± 50 grams
[2]; [6]
  Body weight: 2850 ± 42 grams
[2]; [7]
  Body weight: 3008 ± 58 grams
[3]; [4]
  Mean plasma cholesterol exposure: 11.2 ± 1.5 mmol/L/day
[3]; [5]
  Mean plasma cholesterol exposure: 9.0 ± 1.3 mmol/L/day
[3]; Example 2: Org OD14 2 and 6 mg, E2 4 mg orally daily, E2D 150 µg s.c. weekly
  plasma cholesterol levels (in words): strongly reduced the plasma cholesterol levels
[3]; [6]
  Mean plasma cholesterol exposure: 20.7 ± 1.5 mmol/L/day
[3]; [7]
  Mean plasma cholesterol exposure: 12.8 ± 1.2 mmol/L/day
